The text below walks through data of a melting point compilation (Tetko et al.; mined from patent text by program, amines drawn as free bases though some values may be those of a salt).

The structures appear in SMILES notation. Non-standard residues stand in square brackets, D forms with d. Residues, ends and D or L forms follow the SMILES beside them. *: point of attachment. 1Nal = N[C@@H](Cc1cccc2ccccc12)C(=O)O; Sta = CC(C)C[C@H](N)[C@@H](O)CC(=O)O; Cbz = O=C(OCc1ccccc1)*; NHNH2 = NN*

Turning to `CCCC(Br)c1nc2ccccc2n1Cc1ccc(C#N)cc1` (stereo unspecified), the melting point (as a rule, the temperature of the solid-liquid transition) stood at 135 °C.
On to `CCOC(=O)Cc1nn(Cc2nc(-c3ccccc3C(F)(F)F)no2)c(=O)c2ccccc12`, for which the melting point lay in the range of 111 to 115 °C.
Under `CCCCCC1CCc2cc(C(=O)Oc3ccc(CCCC)cc3)ccc2C1` (stereo unspecified) stands 48.1 °C; under `CCOC(=O)c1ccc(NC(=O)COC)cc1NC(=O)COC`, 90 to 91 °C; under `O=C1C=C(NC2CCN(Cc3ccccc3)CC2)CCC1`, 171 to 172 °C.
Under `O=C(O)c1ccccc1C(=O)Nc1ccc(C(=O)N2CCCC(O)c3cc(Cl)ccc32)cn1` (stereo unspecified) stands 153 to 155 °C; under `COCCCOc1ccc(-c2nc(C(=O)Nc3nccs3)c(-c3ccc(Cl)cc3)[nH]2)cc1`, 173 to 177 °C.
The molecule `CCOP(=O)(OCC)c1c(C)c2c(c(C)c1-c1c(OCc3ccccc3)ccc3ccccc13)CN(S(=O)(=O)c1ccc(C)cc1)C2` had a melting point of 69.8 to 71.7 °C.
`Nc1cc(C(=O)O)ccc1-c1nnc(-c2ccc(C(F)(F)F)cc2)o1` registered a melting point of over 300 °C.
With `CC(C)(O)c1csc(S(N)(=O)=O)c1`, the melting point was 125 to 127 °C.
`COc1cccc(S(=O)(=O)Nc2nccnc2OC)c1Cl` registered a melting point of 151 to 152 °C.
The molecule `COc1cccc2c1C13CCN(CC4CC4)C(C2)C1(O)CCC(=O)C3` (stereo unspecified) had a melting point of 133 to 135 °C.
Under `CC(=O)NC(=O)CCc1ccc(OCCc2nc(-c3ccccc3)oc2C)cc1` stands 128 to 129 °C; under `CC(=O)[C@H]1C[C@H](C(=O)OC(C)(C)C)N(C(=O)CNC(=O)Nc2cccc(C(=O)O)c2)[C@@H]1c1ccccc1` (racemic), 145 °C; under `CC(C)(C)[Si](C)(C)O[C@H]1OC[C@@H](n2cnc3cc(Cl)c(Cl)cc32)[C@H](O)[C@@H]1O`, 128 to 130 °C.
Turning to `O=C(O)C(=O)c1ccc(OCCOc2ccccc2F)cc1`, the melting point fell in the range of 108 to 110 °C.
Regarding `CCOC(=O)C(C(C)=O)C(CC(=O)c1ccccc1)c1ccc(OC)c(OC)c1` (stereo unspecified), the melting point came out at 135 °C.
Next, `CS(=O)(=O)c1ccc(-c2cnn(Cc3ncc(Cl)s3)c(=O)c2-c2ccc(F)cc2)cc1`: 185 to 186 °C; `Cn1nnc(-c2ccc3c(c2)c(C2=CCN(CCc4nnn[nH]4)CC2)cn3-c2ccc(F)cc2)n1`: 131 to 132 °C; `O=c1cc(-c2ccc(O)c(CO)c2)oc2cccnc12`: 226 to 227 °C.
`CC(C)NC(=S)Nc1nc2ccc(OC(F)(F)F)cc2s1`: the melting point stood at 242 °C.
Molecule `O=c1c2ncn(COCCO)c2nc2[nH]c(-c3ccc(Cl)s3)cn12` came in with a melting point of 226 to 228 °C.
`Nc1nnc(SCc2ccc(Cl)cc2)s1` registered a melting point of 162 to 164 °C.
`Cn1cnc(COc2nn3c(-c4ccccc4)nnc3cc2N2CCOCC2)n1`: the melting point was 205 to 206 °C.
The molecule `COC(=O)/C=C/c1ccc(OCc2nc(-c3ccccc3)oc2C)nc1` returned a melting point of 116 to 117 °C.
The molecule `CCN1CCc2nc(N3CCNCC3)ncc2C1=O` had a melting point of 205 to 210 °C.
In the case of `O[C@@H]1CN=C(c2ccccc2)O[C@H]1c1ccccc1` (racemic), the melting point was 135 °C.
Turning to `CN1OCN=C1c1nn(-c2c(Cl)cc(C(F)(F)F)cc2Cl)c(N)c1S(=O)C(F)(F)F` (stereo unspecified), the melting point is 165 to 167 °C.
For `NC(=O)N(O)CCNC(=O)COc1cccc(Oc2ccccc2)c1`, the melting point was in the range of 153 to 155 °C.
Molecule `CC(C)C[C@H](NC(=O)[C@H](Cc1c[nH]cn1)NC(=O)[C@H](Cc1cccc2ccccc12)NC(=O)OCc1ccccc1)[C@@H](O)CC(=O)NN` (Cbz-[1Nal]-His-[Sta]-NHNH2) registered a melting point of 120 to 127 °C.
`CC(C)(C)CCNC(=O)NCCCl`: the melting point was found to be 84 °C.
As for `CCOP(=O)(CCN1CC(O)CNc2c1c(=O)c2=O)OCC` (stereo unspecified), the melting point fell in the range of 169 to 171 °C.
Consider `CCOC(=O)C(=O)c1oc2cc(C)ccc2c1O`, for which the melting point was 113 to 115 °C.
Under `COc1cc2c(cc1OC)CN(CCc1ccc(NC(=O)c3cccc4c(=O)c5cccc(C)c5[nH]c34)cc1)CC2` stands 175 °C; under `O=C(O)Cc1ccc2c(c1)C(=O)c1cccc(Cl)c1CO2`, 173 to 176 °C; under `CC(=O)Nc1ccc(NC(=O)C=C2CC(C(=O)O)Nc3cc(Cl)cc(Cl)c32)cc1` (racemic), 185 °C.
In the case of `CCC(N)=C(C(C)=O)c1[nH]c2ccccc2c1C(O)CN(C)C` (stereo unspecified), the melting point fell in the range of 90 to 104 °C.
For the molecule `CNS(=O)(=O)N1C[C@H](SC(c2ccccc2)(c2ccccc2)c2ccccc2)C[C@H]1COCc1ccccc1`, the melting point lay in the range of 140 to 142 °C.
`NS(=O)(=O)c1ccc(-c2ccc(F)cc2F)cc1` returned a melting point of 143 °C.
As for `O=C(O)CCn1cc(Cc2cccnc2)c2cc(NS(=O)(=O)c3ccc(F)cc3)ccc21`, the melting point lay in the range of 214 to 215 °C.
Molecule `CN1CCC(N2C(=O)CN=C(c3ccccc3)c3ccccc32)CC1` registered a melting point of 158 to 159 °C.
As to `CC(C)(C)OC(=O)N1CCN(c2ccc(N3CC(CN=[N+]=[N-])OC3=O)cc2F)CC1` (stereo unspecified), the melting point lay within 101 to 104 °C.
In the case of `CC#CCOc1ccc(S(=O)(=O)CNCC(C(=O)NO)N2CCN(S(C)(=O)=O)CC2)cc1` (stereo unspecified), the melting point came out at 86 °C.
`CC(=O)Nc1ccc(CC(=S)N2CCOCC2)cc1` returned a melting point of 210 to 212 °C.
`O=C(C[C@@H]1COCCO1)N[C@H]1CC[C@H](CCN2CCN(c3nccc4c3CCO4)CC2)CC1`: the melting point came to 192 °C.
With `CCOC(=O)c1c(C)n(C(=O)c2ccccc2)c2ccc(Oc3nc(OC)cc(OC)n3)c(C(=O)O)c12`, the melting point was in the range of 113 to 115 °C.
The molecule `CC1(O)ON=C(c2ccc(Br)cc2)C1c1ccccc1` (stereo unspecified) gave a melting point of 153 °C.
`CN(C)C(=O)N(C)c1nnc(S(=O)(=O)N(C)C)s1` registered a melting point of 101 to 103 °C.
Under `CCCNC(=O)ON(C(=O)NCCC)C(=O)C1CC1` stands 76 to 78 °C; under `CN(CC(=O)O)c1cc(Br)ccc1[N+](=O)[O-]`, 152 to 155 °C; under `C(#Cc1ccc(C=CC2=CC(c3ccc(C#Cc4ccccc4)cc3)N(c3ccccc3)N2)cc1)c1ccccc1` (stereo unspecified), 212 to 214 °C.
With `Fc1ccc(C(F)(F)C(F)(F)c2ccccc2Br)cc1`, the melting point lay within 52 to 53.5 °C.
The molecule `COc1cc(C(=O)c2ccccc2)c(O)c2c1C(C)(C)CCC2(C)C` came in with a melting point of 85 °C.
As to `Cn1cc(OS(C)(=O)=O)c(=O)c2ccc(OCC(F)(F)F)cc21`, the melting point lay within 110 to 112 °C.
Molecule `Cc1ccccc1N(CC(=O)OC(C)(C)C)C(=O)CN1C(=O)c2ccccc2C1=O` returned a melting point of 140 °C.
The molecule `O=C(O)c1ccccc1Nc1ccc(CCCCc2ccc(Cl)c(Cl)c2)cc1` yielded a melting point of 98 to 105 °C.
`CC(C)(C)OC(=O)N1C2CCC1CN(CCCNc1ccc(C#N)cc1)C2` yielded a melting point of 124 to 127 °C.
`COC(=O)c1ccccc1-c1ccc(COS(C)(=O)=O)cc1` yielded a melting point of 43 to 45 °C.
Molecule `CCCC(CO)n1cnc(C(N)=O)c1` (stereo unspecified) returned a melting point of 160 °C.
For the molecule `O=CN1CCN(C(=O)COc2cc(-c3ccccc3)nc3ccccc23)CC1`, the melting point is 170 °C.
Regarding `O=C1NC(O)c2cccn2-c2ccsc21` (stereo unspecified), the melting point is 172 °C.
`CCC(=S)OC1(C(=O)COC(=O)C(C)C)CCC2C3CC(C)C4=CC(=O)C=CC4(C)C3C(O)CC21C` (stereo unspecified) showed a melting point of 151 to 152 °C.
On to `CCOC(=O)c1cc(C)c2c(c1)c1ccccc1n2Cc1ccccc1`, for which the melting point was 118 to 119 °C.
In turn, `CN1CCN(C(=O)c2nc(-c3ccccc3)nc3c2c2ccc(Cl)cc2n3C)CC1` came in with a melting point of 236 to 238 °C.
`CON=C(c1ccc(F)cc1)c1ccc2[nH]c(NC(=O)OC)nc2c1` registered a melting point of 290 to 295 °C.
`Cc1c(F)cc(C(=O)O)c(Cl)c1Cl` registered a melting point of 179 to 180 °C.
As for `COc1cc(OS(C)(=O)=O)ccc1C1=NC2=NC=NC(=O)C2=N1`, the melting point was in the range of 288 to 291 °C.
Under `CC1(C)Oc2ccc(C(=O)O)cc2S1` stands 124 to 125 °C; under `OC1OC(C2(c3ccccc3)CN2)N2CC12c1ccccc1` (stereo unspecified), 53 to 55 °C; under `N#Cc1ccc([C@H]2CC[C@H](O)CC2)cc1`, 120 to 122 °C.
The molecule `Cc1cccc(O[C@@H]2CCN(S(C)(=O)=O)CC[C@H]2O)c1C` (relative stereo) had a melting point of 112 to 115 °C.
Under `CC(=O)SCCC1(C)C(=O)N2CCCC(C(=O)OC(C)(C)C)N2C1=O` (stereo unspecified) stands 67 to 70 °C; under `CC(=O)c1ccc(OCC(O)COc2cccc([N+](=O)[O-])c2)cc1O` (stereo unspecified), 119 to 122 °C; under `OCc1ccccc1NCc1cc2c(cc1O)CCO2`, 149 to 150 °C.
In the case of `N#CNC1=NC(c2ccc(OC(F)(F)F)cc2)(c2cccc(-c3cncnc3)c2)C2=NCCCN12` (stereo unspecified), the melting point lay in the range of 227 to 231 °C.
`CN1CCC(=C2c3ccsc3C(=O)Cn3ccnc32)CC1` displayed a melting point of 153 °C.
As for `CCCC(CCC)c1nc(-c2ccncc2)c(-c2ccc(Cl)cc2)n1CC`, the melting point lay within 152 to 155 °C.
`O=C(CNC(=O)[C@@H]1CCCN1C(=O)O)NCc1ccccc1` showed a melting point of 112 to 115 °C.
For the molecule `CCCCCCCCCCCCCC(=O)N[C@H]1CCCNC(=O)C1`, the melting point was in the range of 97 to 98 °C.
Under `COc1ccc2c(NC(N)=O)c(C(=O)Nc3ccc(Cl)cc3Cl)oc2c1` stands over 260 °C; under `O=[N+]([O-])c1c(Cl)nc2c(c1Cl)CCCC2`, 63 to 64 °C; under `COCc1ccc(/C=C/c2c(OC)cc3c(c2OC)C(C)(C)CCC3(C)C)cc1`, 66 to 68 °C.
Next, `CCc1cc2c(=O)c3cccc(C(=O)OCOC(=O)C(C)(C)C)c3n(Cc3ccc(-c4ccccc4-c4nnn[nH]4)cc3)c2s1`: 146 to 152 °C; `C[C@@H]1CN(C(=O)[C@@](C)(O)C(F)(F)F)[C@@H](C)CN1S(=O)(=O)c1cccs1`: 116 to 117 °C; `Cc1ccccc1CNC(=O)N1Cc2ccccc2-n2nc(C(C)(C)C)cc21`: 180 to 181 °C.
Next, `O=C(NCc1ccc(F)cc1)c1ccnc(N2CCN(Cc3ccncc3)C2=O)c1`: 161 to 163 °C.
